For one experiment, the target named is T1, IKKε (Homo sapiens, UniProt Q14164).
T1 construct: His-tag (in-house Sf9 preparation) or GST-tag (purchased Invitrogen preparation); these are alternatives, not both on one protein; host or cells: Sf9 cells
T1 sequence (Q14164 1-716): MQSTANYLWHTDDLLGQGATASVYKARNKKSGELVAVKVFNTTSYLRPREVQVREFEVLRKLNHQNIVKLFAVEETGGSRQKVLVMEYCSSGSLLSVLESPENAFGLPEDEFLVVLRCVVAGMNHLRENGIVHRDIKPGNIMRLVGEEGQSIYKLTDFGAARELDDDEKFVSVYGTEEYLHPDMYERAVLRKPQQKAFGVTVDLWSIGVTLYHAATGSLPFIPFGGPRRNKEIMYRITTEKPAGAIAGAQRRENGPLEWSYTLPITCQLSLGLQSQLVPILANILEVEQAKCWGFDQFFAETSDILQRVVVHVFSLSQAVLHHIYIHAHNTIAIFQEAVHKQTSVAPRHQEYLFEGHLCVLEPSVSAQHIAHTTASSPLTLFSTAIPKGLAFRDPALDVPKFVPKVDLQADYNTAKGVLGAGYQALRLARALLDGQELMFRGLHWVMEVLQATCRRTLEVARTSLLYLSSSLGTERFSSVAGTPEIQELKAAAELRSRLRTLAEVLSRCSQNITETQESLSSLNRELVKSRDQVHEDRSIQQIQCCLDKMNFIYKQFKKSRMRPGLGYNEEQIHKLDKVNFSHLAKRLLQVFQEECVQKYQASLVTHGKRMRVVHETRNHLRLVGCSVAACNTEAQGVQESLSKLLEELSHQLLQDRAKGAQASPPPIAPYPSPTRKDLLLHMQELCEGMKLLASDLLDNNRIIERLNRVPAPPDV
As to the kind of experiment: In-vitro IKKε kinase assay (radiolabelled ATP, filterplate). In kind it is biochemical. The essentials: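 His-tagged IKKε from Sf9 cells or GST-tagged IKKε, with myelin basic protein, casein or dephosphorylated casein as substrate and 32 μM ATP (2× Km) plus [γ^33]ATP. "Normal" assay used 0.1 μg/ml enzyme; "sensitized" used 0.015 μg/ml with dephosphorylated casein only. Stopped after 30–45 min with phosphoric acid; P-81 filter counts normalized to DMSO after background subtraction.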

The subject of experiment [1] is IKKε-mediated phosphorylation of IRF3. As to the kind of experiment: ELISA for in-situ phosphorylation of IRF3 (phospho-Ser396) in HEK293T cells cotransfected with IRF3 and IKKε. The experiment is classed as cell-based. The following applies: Homo sapiens, HEK-293T, 20 h, HEK293T cells, 20 hours, read-out: IC50, in-situ IKKε-mediated phosphorylation of IRF3. The essentials:
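HEK293T cells cotransfected with IRF3 and IKKε were treated with compound for 20 h, and lysates were assayed by ELISA for phospho-Ser396 IRF3, normalized to DMSO. Viability was checked in parallel by CellTiter-Glo. For TBK1, cells cotransfected with IRF7 and TBK1 were treated overnight and probed by Western blot for phospho-Ser477/Ser479 IRF7.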
(In general: In an ELISA, binding on a coated surface is turned into a signal by an enzyme label.)

Where [2] appears, read: in-vitro IKKε kinase inhibition assays, given as 0.005 μM (5 nM), read-out: IKKε kinase inhibitory activity (IC50 value).
[3] abbreviates: "sensitized" assay, read-out: IC50, inhibition of the kinase activity of IKKε.
Where [4] appears, read: range given from about 1 μM to about 250 nM.

Where two headings read alike, the source gives them in different places.

This is an account of results in patent US20140288044A1, “COMPOSITIONS AND THERAPEUTIC USES OF IKK-RELATED KINASE EPSILON AND TANKBINDING KINASE 1 INHIBITORS” (Alzheimer's Institute of America, Inc., priority 2011, published 2014).

As a reminder, the IC50 is the midpoint of a concentration-inhibition curve. For the compound `N#Cc1cc(-c2ccnc(Nc3ccc(/C=C/CN4CCOCC4)nc3)n2)ccc1OC1CCOCC1` [Example Compound 94, 5-[2-({6-[(1E)-3-(Morpholin-4-yl)prop-1-en-1-yl]pyridin-3-yl}amino)pyrimidin-4-yl]-2-(tetrahydro-2H-pyran-4-yloxy)benzonitrile], the results for the IC50 (at IKKε (setting [2]); in experiment [1]) were under 5 nM and 100 to 250 nM, respectively.
As to `COC1CN(C(=O)c2ncc(Nc3nccc(-c4ccc(OC5CCOCC5)c(C#N)c4)n3)n2C)C1` [Example Compound 102, 5-[2-({2-[(3-Methoxyazetidin-1-yl)carbonyl]-1-methyl-1H-imidazol-5-yl}amino)pyrimidin-4-yl]-2-(tetrahydro-2H-pyran-4-yloxy)benzonitrile], the values for the IC50 (on IKKε (setting [3]); at IKKε (setting [2]); in experiment [1]) were under 5 nM, under 5 nM and 100 to 250 nM, respectively.
As to `CC(C)COc1ccc(-c2ccnc(Nc3ccc(N(C)CCO)nc3)n2)cc1C#N` [Example Compound 109, 5-[2-({6-[(2-Hydroxyethyl)(methyl)amino]pyridin-3-yl}amino)pyrimidin-4-yl]-2-(2-methylpropoxy)benzonitrile], the IC50 at IKKε (setting [3]) is under 5 nM; on IKKε (setting [2]) it was under 5 nM; in experiment [1], 100 to 250 nM.
Consider `CCN(CC)c1ccc(Nc2nccc(-c3ccc(O[C@@H]4CCN(C(=O)CO)C4)c(C#N)c3)n2)cn1` [Example Compound 117, 5-(2-{[6-(Diethylamino)pyridin-3-yl]amino}pyrimidin-4-yl)-2-{[(3R)-1-(hydroxyacetyl)pyrrolidin-3-yl]oxy}benzonitrile], for which the IC50 at IKKε (setting [3]) is under 5 nM; on IKKε (setting [2]) it was under 5 nM; in experiment [1] (setting [4]), 250 to 1000 nM.
As to `N#Cc1cc(-c2ccnc(Nc3ccc(N4CCOCC4)nc3)n2)ccc1O[C@@H]1CCN(C(=O)CO)C1` [Example Compound 119, 2-{[(3R)-1-(Hydroxyacetyl)pyrrolidin-3-yl]oxy}-5-(2-{[6-(morpholin-4-yl)pyridin-3-yl]amino}pyrimidin-4-yl)benzonitrile], the IC50 is under 5 nM on IKKε (setting [3]), under 5 nM on IKKε (setting [2]) and 100 to 250 nM in experiment [1].
`Cc1cc(Nc2nccc(-c3ccc(O[C@@H]4CCN(C(=O)CO)C4)c(C#N)c3)n2)ccn1` [Example Compound 123, 2-{[(3R)-1-(Hydroxyacetyl)pyrrolidin-3-yl]oxy}-5-{2-[(2-methylpyridin-4-yl)amino]pyrimidin-4-yl}benzonitrile]: the IC50 is under 5 nM at IKKε (setting [2]) and 250 to 1000 nM in experiment [1] (setting [4]).
Consider `Cn1cc(-c2cc(Nc3nccc(-c4ccc(O[C@@H]5CCN(C(=O)CO)C5)c(C#N)c4)n3)ccn2)cn1` [Example Compound 126, 2-{[(3R)-1-(Hydroxyacetyl)pyrrolidin-3-yl]oxy}-5-(2-{[2-(1-methyl-1H-pyrazol-4-yl)pyridin-4-yl]amino}pyrimidin-4-yl)benzonitrile], for which the IC50 on IKKε (setting [2]) was under 5 nM; in experiment [1], 1000 to 5000 nM.
For `Cc1ccc(Nc2nccc(-c3ccc(OC4CCN(C(=O)[C@H](C)O)CC4)c(C#N)c3)n2)cn1` [Example Compound 128, 2-({1-[(2S)-2-Hydroxypropanoyl]piperidin-4-yl}oxy)-5-{2-[(6-methylpyridin-3-yl)amino]pyrimidin-4-yl}benzonitrile], the IC50 is under 5 nM on IKKε (setting [3]), under 5 nM on IKKε (setting [2]) and 1000 to 5000 nM in experiment [1].
In the case of `Cc1ccc(Nc2nccc(-c3ccc(OC4CCN(C(=O)CO)CC4)c(C#N)c3)n2)cn1` [Example Compound 130, 2-{[1-(Hydroxyacetyl)piperidin-4-yl]oxy}-5-{2-[(6-methylpyridin-3-yl)amino]pyrimidin-4-yl}benzonitrile], the IC50 is under 5 nM at IKKε (setting [2]) and 1000 to 5000 nM in experiment [1].
Regarding `COc1cc(Nc2nccc(-c3ccc(OC4CCN(C(=O)CO)CC4)c(C#N)c3)n2)ccn1` [Example Compound 131, 2-{[1-(Hydroxyacetyl)piperidin-4-yl]oxy}-5-{2-[(2-methoxypyridin-4-yl)amino]pyrimidin-4-yl}benzonitrile], the IC50 was under 5 nM at IKKε (setting [2]) and 100 to 250 nM in experiment [1].
On to `CN(C)c1ccc(Nc2nccc(-c3ccc(NC(=O)C4CC4)c(C#N)c3)n2)cn1` [Example Compound 138, N-[2-Cyano-4-(2-{[6-(dimethylamino)pyridin-3-yl]amino}pyrimidin-4-yl)phenyl]cyclopropanecarboxamide], for which the values for the IC50 (on IKKε (setting [3]); at IKKε (setting [2]); in experiment [1]) were under 5 nM, under 5 nM and under 100 nM, respectively.
On to `CCN(CC)c1ccc(Nc2nccc(-c3ccc(NC(=O)C4CC4)c(C#N)c3)n2)cn1` [Example Compound 139, N-[2-Cyano-4-(2-{[6-(diethylamino)pyridin-3-yl]amino}pyrimidin-4-yl)phenyl]cyclopropanecarboxamide], for which the IC50 on IKKε (setting [3]) was under 5 nM; on IKKε (setting [2]) it was under 5 nM; in experiment [1] (setting [4]), 250 to 1000 nM.
On to `N#Cc1cc(-c2ccnc(Nc3ccnc(N4CCN(CCO)CC4)c3)n2)ccc1NC(=O)C1CC1` [Example Compound 143, N-{2-Cyano-4-[2-({2-[4-(2-hydroxyethyl)piperazin-1-yl]pyridin-4-yl}amino)pyrimidin-4-yl]phenyl}cyclopropanecarboxamide], for which the values for the IC50 (at IKKε (setting [3]); on IKKε (setting [2]); in experiment [1]) were under 5 nM, under 5 nM and under 100 nM, respectively.
Take `N#Cc1cc(-c2ccnc(Nc3cncc(C(=O)NCCO)c3)n2)ccc1OC1CCOCC1` [Example Compound 175, 5-({4-[3-Cyano-4-(tetrahydro-2H-pyran-4-yloxy)phenyl]pyrimidin-2-yl}amino)-N-(2-hydroxyethyl)pyridine-3-carboxamide]: the figures for the IC50 (on IKKε (setting [3]); in experiment [1]) were under 5 nM and 1000 to 5000 nM, respectively.
For `COCCNCc1cncc(Nc2nccc(-c3ccc(OC4CCOCC4)c(C#N)c3)n2)c1` [Example Compound 184, 5-{2-[(5-{[(2-Methoxyethyl)amino]methyl}pyridin-3-yl)amino]pyrimidin-4-yl}-2-(tetrahydro-2H-pyran-4-yloxy)benzonitrile], the values for the IC50 (on IKKε (setting [3]); in experiment [1]) were under 5 nM and 100 to 250 nM, respectively.
As to `N#Cc1cc(-c2ccnc(Nc3cncc(CN4CCOCC4)c3)n2)ccc1OC1CCOCC1` [Example Compound 185, 5-(2-{[5-(Morpholin-4-ylmethyl)pyridin-3-yl]amino}pyrimidin-4-yl)-2-(tetrahydro-2H-pyran-4-yloxy)benzonitrile], the IC50 was under 5 nM on IKKε (setting [3]) and 250 to 1000 nM in experiment [1] (setting [4]).
Consider `COCCNc1cc(Nc2nccc(-c3ccc(OC4CCOCC4)c(C#N)c3)n2)ccn1` [Example Compound 193, 5-[2-({2-[(2-Methoxyethyl)amino]pyridin-4-yl}amino)pyrimidin-4-yl]-2-(tetrahydro-2H-pyran-4-yloxy)benzonitrile], for which the IC50 on IKKε (setting [3]) is under 5 nM; in experiment [1], under 100 nM.
With `CN(Cc1ccc(Nc2nccc(-c3ccc(OC4CCOCC4)c(C#N)c3)n2)cn1)C(=O)C(C)(C)O` [Example Compound 205, N-{[5-({4-[3-Cyano-4-(tetrahydro-2H-pyran-4-yloxy)phenyl]pyrimidin-2-yl}amino)pyridin-2-yl]methyl}-2-hydroxy-N,2-dimethylpropanamide], the IC50 at IKKε (setting [3]) was under 5 nM; in experiment [1], under 100 nM.
The like results for `CN(Cc1ccc(Nc2nccc(-c3ccc(OC4CCOCC4)c(C#N)c3)n2)cn1)S(C)(=O)=O` [Example Compound 206, N-{[5-({4-[3-Cyano-4-(tetrahydro-2H-pyran-4-yloxy)phenyl]pyrimidin-2-yl}amino)pyridin-2-yl]methyl}-N-methylmethanesulfonamide] were, in that order, under 5 nM and under 100 nM.
